Where two headings read alike, the source gives them in different places.

Data set [1] deals with HBV mRNA. As to the kind of experiment: Inhibition of HBV mRNA expression in liver of 44Bri mice, day 14 (Exp. Ex. 2-4). The format is in vivo, HBV transgenic mice C57BL/6J-Tg(Alb1HBV)44Bri/J. Particulars: 1 mg/kg subcutaneous single dose, day 14 after administration. An excerpt:
(§1) HBV transgenic mice C57BL/6J-Tg(Alb1HBV)44Bri/J: purchased from Department of Laboratory Animal Science, Peking University Health Science Center. Mice with S/COV >10 were selected before the experiment. Hereinafter, the transgenic mice were sometimes abbreviated as 44Bri model mice;
In this experimental example, the inhibitory efficiency of Conjugate 32 on the expression level of HBV mRNA in HBV-transgenic mice C57BL/6J-Tg (A 1b1HBV) 44Bri/J was investigated.
The HBV transgenic mice C57BL/6J-Tg (Alb1HBV) 44Bri/J used in this experimental example were purchased from the Department of Laboratory Animal Science, Peking University Health Science Center. […]
For each mouse, 1 μg of total RNA was taken, and the extracted total RNA was reverse-transcribed into cDNA using ImProm-II™ reverse transcription kit (Promega Crop.) according to the instructions thereof to obtain a solution containing cDNA, and then the expression level of HBV mRNA in liver tissue was determined by the fluorescent quantitative PCR kit (Beijing Cowin Biosciences Co., Ltd.). In this fluorescent quantitative PCR method, R-actin gene was used as an internal control gene, and HBV and 3-actin were detected by using primers for HBV and β-actin, respectively. […]

Data set [2] deals with HBV mRNA. In words: Inhibition of HBV mRNA expression in liver of 44Bri mice, day 7 (Exp. Ex. 2-6). The format is in vivo, HBV transgenic mice C57BL/6J-Tg(Alb1HBV)44Bri/J. Particulars: 1 mg/kg subcutaneous, day 7 after administration.
Excerpt: as §1
In this experimental example, the inhibitory efficiency of different concentrations of Conjugate 32 on the expression level of HBV mRNA in HBV transgenic mice C57BL/6J-Tg (Alb1HBV) 44Bri/J was investigated. […]
The expression level of HBV mRNA in the liver tissue of each mouse was determined by real-time fluorescent quantitative PCR. Specifically, the total RNA extracted from the liver tissue of each mouse was reverse-transcribed into cDNA using ImProm-II™ reverse transcription kit (Promega) according to the instructions thereof, and then the expression level of HBV mRNA in liver tissue was determined by the fluorescent quantitative PCR kit (Beijing Cowin Biosciences Co., Ltd.) and the inhibitory efficiency was calculated. In this fluorescent quantitative PCR method, GAPDH gene was used as an internal control gene, and the HBV and GAPDH were detected by using the primers for HBV and GAPDH, respectively. […]

The next data set deals with HBV DNA. In words: Time course of serum HBV DNA in AAV-HBV low concentration model mice (Exp. Ex. 2-7). The format is in vivo. Particulars: 3 mg/kg subcutaneous single dose. An excerpt:
(§2) The AAV-HBV low concentration model mice were used.
Normalized expression level of HBV DNA=(HBV DNA content after administration/HBV DNA content before administration)×100%.

The subject of data set [3] is HBV mRNA. In words: Inhibition of HBV mRNA on day 70 (Exp. Ex. 2-7, FIG. 9). The format is in vivo, AAV-HBV low concentration model mice. Particulars: 1 mg/kg or 3 mg/kg, day 70 after administration. The method, then:
as §2
In a further experiment, the inhibitory effect on HBV mRNA on day 70 was tested according to the detection method of Example 6 above, and the results are shown in FIG. 9.

The conditions of data set [4]: 90% cynomolgus monkey plasma, 37° C., period of up to 72 hours.
Method: Therein, 0 hour is the time when 10 μL of the mixed solution was taken immediately after the conjugate solution was mixed well with 90% cynomolgus monkey plasma. After sampling at each time point, each mixed solution was diluted 5-fold with 1×PBS (pH7.4), and 10 μL of each diluted mixed solution was taken for electrophoresis.
20 wt % of non-denatured polyacrylamide gel was prepared. The samples for electrophoresis in each group of the above diluted samples were mixed with 4 μL of loading buffer (20 mM EDTA, 36 wt % glycerol, and 0.06 wt % aqueous solution of bromophenol blue) and loaded into each gel well for electrophoresis under 80 mA constant current for 60 minutes. After electrophoresis, the gel was stained with 1×Sybr Gold dye (Invitrogen, Cat. 11494) for 15 minutes and imaged.
For data set [5] the following is noted: SD rats, subcutaneous single dose 0.5 mg/kg and 1 mg/kg.
Method: In this Experimental Example, the rats in each experimental group (10 rats in each group, half male and half female) were administered with Conjugate 32 by subcutaneous injection respectively at a single dose of 1 mg/kg and 0.5 mg/kg of rat body weight. The plasma drug concentration and liver tissue drug concentration in rats at each time point were then measured.
First, SD rats were randomly divided into groups according to the body weight and gender of the rat using the [sequence] version 7.2.0 data system, and then the conjugates were administered at the designed doses, respectively. All animals were dosed based on body weight and subcutaneously administered at a single doses of 1 and 0.5 mg/kg (provided in the form of 0.1 mg/mL and 0.05 mg/mL in 0.9% aqueous sodium chloride solution, with a volume of 10 mL/kg). The rat's whole blood was collected from the jugular vein before administration and 5 minutes (±30 seconds), 30 minutes (±1 minute), 1 hour (±2 minutes), 2 hours (±2 minutes), 6 hours (±5 minutes), 24 hours (±10 minutes), 48 hours (±20 minutes), 72 hours (±20 minutes), 120 hours (±30 minutes), and 168 hours (±30 minutes) after administration. […]
The concentration of Conjugate 32 in rat plasma and liver tissue was quantitatively determined by HPLC-FLD (High Performance Liquid Fluorescence Chromatography) according to the following steps: […]
In data set [6] the test system is HBsAg. To be noted: M-Tg HBV mice, 3 mg/kg subcutaneous single dose, period of up to 70 days.
Method: HBV transgenic mice: named as M-Tg HBV, purchased from the Animal Department of Shanghai Public Health Center. […] Hereinafter, the transgenic mice were sometimes abbreviated as M-Tg model mice;
M-Tg HBV mice (purchased from the Animal Department of Shanghai Public Health Center) were used. […] The AAV virus used is rAAV8-1.3HBV, type D (ayw) virus, purchased from Beijing FivePlus Molecular Medicine Institute Co. Ltd., 1×10^12 viral genome (v.g.)/mL, Lot No. 2016123011. The AAV virus was diluted to 5×10^11 v.g./mL with sterilized PBS prior to the experiment. Each mouse was injected with 200 μL (that is, each mouse was injected with 1×10^11 v.g). […] Each conjugate was administered in the form of 0.2 mg/mL or 0.6 mg/mL (both calculated based on siRNA) in 0.9% aqueous sodium chloride solution, with an administration volume of 5 mL/kg mouse body weight; that is, the administration doses of each conjugate (calculated based on siRNA) were 1 mg/kg and 3 mg/kg. […] The blood was collected from mouse orbital venous plexus before administration and on day 7, 14, 21, 28, 35, 42, 49, 63, and 70 days after administration, and the serum HBsAg level was determined at each time point. […]
The inhibition rate against HBsAg is calculated according to the following equation:
wherein HBsAg content is expressed as the equivalents (UI) of HBsAg per millilitre (mL) of serum.
Data set [7] concerns HBsAg. Particulars: AAV-HBV low concentration model mice, 3 mg/kg subcutaneous single dose.
Method: The AAV-HBV low concentration model mice were used. After the animal models were successfully established, they were randomly divided into groups according to serum HBsAg content (five mice per group). […] The blank group was administered with only 5 mL/kg 1×PBS. Blood was collected from mouse orbital venous plexus before administration and on day 14, 28, 42, 56, 70, 84, 98, 112, 126, 140, 154, 168, 182, and 196 days after administration, and the serum HBsAg level was determined at each time point.
About 100 μL orbital blood was taken each time, and no less than 20 NL serum was collected after centrifugation. The HBsAg content in serum was determined by using HBsAg CLIA kit (Autobio, CL0310) according to the instructions provided by the manufacturer.
Normalized expression level of HBsAg=(HBsAg content after administration/HBsAg content before administration)×100%.

“Conjugate 32: siRNA conjugate, S SEQ ID NO 367, AS SEQ ID NO 368, Table 2A; conjugated via Compound N-62 (sense CCUUGAGGCAUACUUCAAA; antisense UUUGAAGUAUGCCUCAAGGUU; conjugated via Compound N-62, position not given here)”: the “inhibition rate against HBV mRNA in liver tissue” value in the data set on HBV mRNA [1] was “up to 89.86%”; in the data set with HBV mRNA [2] it was “up to 91.96%”. Further, in the data set on HBV DNA, the “inhibition rate against HBV DNA in serum” value is “up to 85.7%”. Further, in the data set with HBV mRNA [3], the “inhibitory effect on HBV mRNA on day 70” value was “can still inhibit the expression level of HBV mRNA to a certain extent”. Also, the “stability in cynomolgus monkey plasma in vitro (semiquantitative)” value in data set [4] was “remain undegraded”. For the same substance, in data set [5], the “concentration in rat plasma over time” value was “rapidly decreased to below detection limit within a few hours”. For the same substance, in data set [5], the “time for which the concentration in liver tissue maintained a higher and stable level” value is listed as “at least 150 hours”. The “inhibition rate against serum HBsAg” value with HBsAg [6] was “up to 97.80%”; with HBsAg [7], “up to 90.9%”.

The record behind these values is patent US20230076803A1, “COMPOUND AND DRUG CONJUGATE, AND PREPARATION METHOD AND USE THEREOF” (priority 2019, published 2023).
